This passage reports binding results from article PMC10786036 (2023).

Test [1] deals with c-MYC (DNA, G4) TGAGGGTGGGTAGGGTGGGTAA
Briefly: fluorescence lifetime. The conditions noted are these: 100 mM LiCl; 10 mM Tris-HCl pH 7.4; lifetime 1.3 ns lower than in K+.

Test [2] has as its system TRF2 (RNA, G4) CGGGAGGGCGGGGAGGGC
Briefly: fluorescence lifetime. The conditions noted are these: 100 mM KCl; 10 mM Tris-HCl pH 7.4; 2 µM TOR-G4; lifetime rises with G4 RNA in totRNA.

In the case of `COc1ccc2c(c1)N(C)C(=Cc1cc(/C=C/c3ccc(N(C)C)cc3)[n+](C)c3ccccc13)S2`, the binding result in test [1] and in test [2] was “yes” in each case.
